Source: patent US20260062387A1, “SALT-INDUCIBLE KINASE INHIBITOR COMPOUND AND PHARMACEUTICAL COMPOSITION INCLUDING THE SAME” (MITSUBISHI TANABE PHARMA CORPORATION, priority 2023, published 2026)

What was measured:
Assay type in all cases: biochemical
GST-tagged SIK2 = GST-tagged SIK2 (Homo sapiens (Human), UniProt Q9H0K1); experiment: SIK2 inhibition test (ADP-Glo Max Assay); settings: enzyme 3 nM, AMARA Peptide 200 μM, ATP 1 mM, 2 hours room temperature
How it was run: (§1)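 ADP formed was detected by luciferase luminescence after a 2 h room-temperature reaction with 1 mM ATP, 5 mM MgCl2 and AMARA peptide at 200 μM (SIK1, SIK2) or 100 μM (SIK3). Final GST-enzyme levels were 20 nM SIK1, 3 nM SIK2 and 100 nM SIK3. IC50 came from 16-point concentration-response data.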

GST-tagged SIK3 = GST-tagged SIK3 (Homo sapiens (Human), UniProt Q9Y2K2); experiment: SIK3 inhibition test (ADP-Glo Max Assay); settings: enzyme 100 nM, AMARA Peptide 100 μM, ATP 1 mM, 2 hours room temperature
GST-tagged SIK3, sequence (Q9Y2K2 whole entry): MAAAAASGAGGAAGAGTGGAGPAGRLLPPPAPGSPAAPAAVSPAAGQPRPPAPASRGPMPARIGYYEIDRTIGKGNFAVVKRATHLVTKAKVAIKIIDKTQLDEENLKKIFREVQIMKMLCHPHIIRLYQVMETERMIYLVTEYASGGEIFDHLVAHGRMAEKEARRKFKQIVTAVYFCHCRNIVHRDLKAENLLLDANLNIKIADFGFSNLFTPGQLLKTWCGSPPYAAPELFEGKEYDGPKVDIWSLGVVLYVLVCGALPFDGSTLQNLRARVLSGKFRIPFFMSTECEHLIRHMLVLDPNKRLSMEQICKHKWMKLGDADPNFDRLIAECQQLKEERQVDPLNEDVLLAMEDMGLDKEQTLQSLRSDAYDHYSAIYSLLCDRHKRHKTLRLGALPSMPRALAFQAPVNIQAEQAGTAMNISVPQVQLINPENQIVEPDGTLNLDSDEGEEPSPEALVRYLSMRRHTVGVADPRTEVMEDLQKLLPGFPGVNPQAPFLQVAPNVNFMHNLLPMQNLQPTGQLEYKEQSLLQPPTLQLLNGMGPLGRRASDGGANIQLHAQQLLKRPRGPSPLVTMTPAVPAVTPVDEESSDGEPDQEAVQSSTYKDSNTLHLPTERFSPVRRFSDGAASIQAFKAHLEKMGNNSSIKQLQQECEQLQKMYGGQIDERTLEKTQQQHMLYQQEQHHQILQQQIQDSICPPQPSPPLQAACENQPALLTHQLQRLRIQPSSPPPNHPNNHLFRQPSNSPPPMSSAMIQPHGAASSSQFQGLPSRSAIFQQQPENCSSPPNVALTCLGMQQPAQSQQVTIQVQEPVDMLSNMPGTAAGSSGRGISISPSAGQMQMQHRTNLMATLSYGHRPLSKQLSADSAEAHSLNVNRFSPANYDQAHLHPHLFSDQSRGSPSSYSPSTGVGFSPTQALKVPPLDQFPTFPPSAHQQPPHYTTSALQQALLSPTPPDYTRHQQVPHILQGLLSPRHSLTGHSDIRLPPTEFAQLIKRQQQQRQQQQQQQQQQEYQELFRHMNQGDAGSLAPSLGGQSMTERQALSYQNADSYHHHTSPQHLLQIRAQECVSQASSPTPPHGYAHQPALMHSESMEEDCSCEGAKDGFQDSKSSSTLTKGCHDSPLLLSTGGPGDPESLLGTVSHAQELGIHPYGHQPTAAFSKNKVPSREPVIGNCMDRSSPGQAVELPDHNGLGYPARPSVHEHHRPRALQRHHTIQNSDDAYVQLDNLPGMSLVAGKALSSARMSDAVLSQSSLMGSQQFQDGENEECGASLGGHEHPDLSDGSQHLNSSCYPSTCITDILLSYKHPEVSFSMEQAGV
How it was run: as §1

GST-tagged SIK1 = GST-tagged SIK1 (Homo sapiens (Human), UniProt P57059); experiment: SIK1 inhibition test (ADP-Glo Max Assay); settings: enzyme 20 nM, AMARA Peptide 200 μM, ATP 1 mM, 2 hours room temperature
GST-tagged SIK1, sequence (P57059 whole entry): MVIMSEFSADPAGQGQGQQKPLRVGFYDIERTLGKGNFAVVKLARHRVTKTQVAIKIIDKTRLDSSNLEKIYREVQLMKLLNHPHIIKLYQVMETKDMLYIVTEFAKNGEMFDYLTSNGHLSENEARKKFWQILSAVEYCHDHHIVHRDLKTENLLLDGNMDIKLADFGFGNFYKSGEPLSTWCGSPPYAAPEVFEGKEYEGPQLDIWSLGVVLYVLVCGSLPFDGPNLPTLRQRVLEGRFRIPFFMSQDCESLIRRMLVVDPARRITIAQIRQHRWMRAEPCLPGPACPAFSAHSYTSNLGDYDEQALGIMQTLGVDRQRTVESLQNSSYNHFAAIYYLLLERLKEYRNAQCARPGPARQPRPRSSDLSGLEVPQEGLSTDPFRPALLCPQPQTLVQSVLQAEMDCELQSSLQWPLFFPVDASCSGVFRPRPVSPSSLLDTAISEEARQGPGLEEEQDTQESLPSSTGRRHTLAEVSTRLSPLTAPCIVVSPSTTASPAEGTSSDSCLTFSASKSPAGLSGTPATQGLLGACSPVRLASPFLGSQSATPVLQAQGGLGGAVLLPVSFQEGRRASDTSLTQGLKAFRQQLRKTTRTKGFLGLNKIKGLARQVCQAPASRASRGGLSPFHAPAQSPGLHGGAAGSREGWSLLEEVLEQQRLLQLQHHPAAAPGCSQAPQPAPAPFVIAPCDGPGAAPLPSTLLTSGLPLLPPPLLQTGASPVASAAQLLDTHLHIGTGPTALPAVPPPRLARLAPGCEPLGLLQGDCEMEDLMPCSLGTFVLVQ
How it was run: as §1

GST-tagged SIK2, sequence (Q9H0K1 whole entry): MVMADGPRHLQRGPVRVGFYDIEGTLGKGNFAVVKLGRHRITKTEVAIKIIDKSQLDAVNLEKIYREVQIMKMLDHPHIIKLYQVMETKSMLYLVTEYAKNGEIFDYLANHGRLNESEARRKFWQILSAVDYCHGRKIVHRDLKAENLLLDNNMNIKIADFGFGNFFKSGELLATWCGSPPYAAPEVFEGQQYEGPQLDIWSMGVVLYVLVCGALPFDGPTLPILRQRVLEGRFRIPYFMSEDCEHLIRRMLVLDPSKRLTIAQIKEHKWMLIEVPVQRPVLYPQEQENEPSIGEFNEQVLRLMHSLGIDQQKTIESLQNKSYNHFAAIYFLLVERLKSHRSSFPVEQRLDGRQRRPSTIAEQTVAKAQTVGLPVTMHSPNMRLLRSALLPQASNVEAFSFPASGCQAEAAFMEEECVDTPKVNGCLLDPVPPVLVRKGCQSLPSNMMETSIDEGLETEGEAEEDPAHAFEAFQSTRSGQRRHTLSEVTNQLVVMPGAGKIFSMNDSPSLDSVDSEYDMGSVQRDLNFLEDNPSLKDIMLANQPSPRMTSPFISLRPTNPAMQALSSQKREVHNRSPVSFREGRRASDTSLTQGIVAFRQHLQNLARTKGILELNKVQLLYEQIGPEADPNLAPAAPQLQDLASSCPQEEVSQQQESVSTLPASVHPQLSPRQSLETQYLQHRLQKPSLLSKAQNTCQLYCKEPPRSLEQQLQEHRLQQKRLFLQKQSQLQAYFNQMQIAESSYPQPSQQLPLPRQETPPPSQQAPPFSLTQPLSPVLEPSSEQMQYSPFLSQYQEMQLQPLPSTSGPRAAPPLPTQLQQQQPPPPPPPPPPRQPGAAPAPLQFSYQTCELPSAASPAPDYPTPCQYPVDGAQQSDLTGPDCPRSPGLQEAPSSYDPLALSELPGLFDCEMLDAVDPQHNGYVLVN

`COc1cc(-c2c3c(C#N)cc(-c4cnn(C[C@H]5C[C@@H](O)C5)c4)cc3nn2C)cc(OC(F)F)c1C(=O)NCC1(F)CC1` [Example 91, 4-[4-cyano-6-[1-[(cis-3-hydroxycyclobutyl)methyl]pyrazol-4-yl]-2-methylindazol-3-yl]-2-(difluoromethoxy)-N-[(1-fluorocyclopropyl)methyl]-6-methoxybenzamide] showed an IC50 (GST-tagged SIK2) of 10.1 nM, an IC50 (GST-tagged SIK3) of 7.3 nM and an IC50 (GST-tagged SIK1) of 17.5 nM.
`COc1cc(-c2c3c(C#N)cc(-c4cnn(CC[C@@H](C)O)c4)cc3nn2C)cc(OC(F)F)c1C(=O)NCC1(F)CC1` [Example 92, 4-[4-cyano-6-[1-[(3R)-3-hydroxybutyl]pyrazol-4-yl]-2-methylindazol-3-yl]-2-(difluoromethoxy)-N-[(1-fluorocyclopropyl)methyl]-6-methoxybenzamide] was tested, and the IC50 (GST-tagged SIK2) was 10.9 nM, the IC50 (GST-tagged SIK3) was 10.2 nM and the IC50 (GST-tagged SIK1) was 17 nM.
`CC[C@H](O)Cn1cc(-c2cc(C#N)c3c(-c4cc(OC)c(C(=O)NCC5(F)CC5)c(OC(F)F)c4)n(C)nc3c2)cn1` [Example 93, 4-[4-cyano-6-[1-[(2S)-2-hydroxybutyl]pyrazol-4-yl]-2-methylindazol-3-yl]-2-(difluoromethoxy)-N-[(1-fluorocyclopropyl)methyl]-6-methoxybenzamide] showed an IC50 (GST-tagged SIK2) of 13.5 nM, an IC50 (GST-tagged SIK3) of 5.9 nM and an IC50 (GST-tagged SIK1) of 19.8 nM.
With `COc1cc(-c2c3c(C#N)cc(-c4cnn(C[C@H](C)O)c4)cc3nn2C)cc(OC(F)F)c1C(=O)N[C@@H]1CC1(F)F` [Example 94, 4-[4-cyano-6-[1-[(2S)-2-hydroxypropyl]pyrazol-4-yl]-2-methylindazol-3-yl]-N-[(1R)-2,2-difluorocyclopropyl]-2-(difluoromethoxy)-6-methoxybenzamide] the IC50 (GST-tagged SIK2) was 5 nM, the IC50 (GST-tagged SIK3) was 2.3 nM and the IC50 (GST-tagged SIK1) was 6.7 nM.
`CCCn1cc(-c2cc(C#N)c3c(-c4cc(OC)c(C(N)=O)c(OC(F)F)c4)n(C)nc3c2)cn1` [Example 96, 4-[4-cyano-2-methyl-6-(1-propylpyrazol-4-yl)indazol-3-yl]-2-(difluoromethoxy)-6-methoxybenzamide] gave an IC50 (GST-tagged SIK2) of 3.9 nM, an IC50 (GST-tagged SIK3) of 5 nM and an IC50 (GST-tagged SIK1) of 14 nM.
`COc1cc(-c2c3c(C#N)cc(-c4cnn(C[C@@H](O)c5ccccc5)c4)cc3nn2C)cc(OC(F)F)c1C(=O)NCC1(F)CC1` [Example 97, 4-[4-cyano-6-[1-[(2S)-2-hydroxy-2-phenylethyl]pyrazol-4-yl]-2-methylindazol-3-yl]-2-(difluoromethoxy)-N-[(1-fluorocyclopropyl)methyl]-6-methoxybenzamide] showed an IC50 (GST-tagged SIK2) of 7.4 nM, an IC50 (GST-tagged SIK3) of 6.1 nM and an IC50 (GST-tagged SIK1) of 15.3 nM.
`COc1cc(-c2c3c(C#N)cc(-c4cnn(CC(=O)N(C)C)c4)cc3nn2C)cc(OC(F)F)c1C(=O)NCC1(F)CC1` [Example 98, 4-[4-cyano-6-[1-[2-(dimethylamino)-2-oxoethyl]pyrazol-4-yl]-2-methylindazol-3-yl]-2-(difluoromethoxy)-N-[(1-fluorocyclopropyl)methyl]-6-methoxybenzamide] showed an IC50 (GST-tagged SIK2) of 10.5 nM, an IC50 (GST-tagged SIK3) of 10.3 nM and an IC50 (GST-tagged SIK1) of 17.9 nM.
In the case of `COc1cc(-c2c3c(C#N)cc(-c4cnn(CC(=O)N5CC(F)(F)C5)c4)cc3nn2C)cc(OC(F)F)c1C(=O)NCC1(F)CC1` [Example 99, 4-[4-cyano-6-[1-[2-(3,3-difluoroazetidin-1-yl)-2-oxoethyl]pyrazol-4-yl]-2-methylindazol-3-yl]-2-(difluoromethoxy)-N-[(1-fluorocyclopropyl)methyl]-6-methoxybenzamide], the IC50 (GST-tagged SIK2) is reported as 5 nM, the IC50 (GST-tagged SIK3) is reported as 4.9 nM and the IC50 (GST-tagged SIK1) is reported as 19.2 nM.
In the case of `COc1cc(-c2c3c(C#N)cc(-c4cnn(CC(=O)N5CCCC5)c4)cc3nn2C)cc(OC(F)F)c1C(=O)NCC1(F)CC1` [Example 100], the IC50 (GST-tagged SIK2) is reported as 7.3 nM, the IC50 (GST-tagged SIK3) is reported as 5.7 nM and the IC50 (GST-tagged SIK1) is reported as 15.5 nM.
Compound `COc1cc(-c2c3c(C#N)cc(-c4cnn(CC(=O)N5CCC(F)(F)C5)c4)cc3nn2C)cc(OC(F)F)c1C(=O)NCC1(F)CC1` [Example 101, 4-[4-cyano-6-[1-[2-(3,3-difluoropyrrolidin-1-yl)-2-oxoethyl]pyrazol-4-yl]-2-methylindazol-3-yl]-2-(difluoromethoxy)-N-[(1-fluorocyclopropyl)methyl]-6-methoxybenzamide] has an IC50 (GST-tagged SIK2) of 5.8 nM, an IC50 (GST-tagged SIK3) of 12 nM and an IC50 (GST-tagged SIK1) of 15 nM.
`COc1cc(-c2c3c(C#N)cc(-c4cnn(CC(F)F)c4)cc3nn2C)cc(OC(F)F)c1C(N)=O` [Example 102, 4-[4-cyano-6-[1-(2,2-difluoroethyl)pyrazol-4-yl]-2-methylindazol-3-yl]-2-(difluoromethoxy)-6-methoxybenzamide] showed an IC50 (GST-tagged SIK2) of 5.3 nM, an IC50 (GST-tagged SIK3) of 5.1 nM and an IC50 (GST-tagged SIK1) of 19.2 nM.
Compound `COc1cc(-c2c3c(OCc4cncc(F)c4)cc(-c4cnn(C)c4)cc3nn2C)cc(OC(F)F)c1C(=O)N1CC(O)(C(F)(F)F)C1` [Example 103, [2-(difluoromethoxy)-4-[4-[(5-fluoropyridin-3-yl)methoxy]-2-methyl-6-(1-methylpyrazol-4-yl)indazol-3-yl]-6-methoxyphenyl]-[3-hydroxy-3-(trifluoromethyl)azetidin-1-yl]methanone] has an IC50 (GST-tagged SIK2) of 1.6 nM, an IC50 (GST-tagged SIK3) of 4.8 nM and an IC50 (GST-tagged SIK1) of 4.4 nM.
Work on `COc1cc(-c2c3c(OCc4cncc(C#N)c4)cc(-c4cnn(C)c4)cc3nn2C)cc(OC(F)F)c1C(=O)N1CC(O)(C(F)(F)F)C1` [Example 104, 5-[[3-[3-(difluoromethoxy)-4-[3-hydroxy-3-(trifluoromethyl)azetidin-1-carbonyl]-5-methoxyphenyl]-2-methyl-6-(1-methylpyrazol-4-yl)indazol-4-yl]oxymethyl]pyridine-3-carbonitrile] yielded an IC50 (GST-tagged SIK2) of 1.8 nM, an IC50 (GST-tagged SIK3) of 4.8 nM and an IC50 (GST-tagged SIK1) of 6.4 nM.
`COc1cc(-c2c3c(C(F)F)cc(-c4cnn(CC(C)(C)O)c4)cc3nn2C)cc(OC(F)F)c1C(=O)N[C@@H]1CC1(F)F` [Example 109] was tested, and the IC50 (GST-tagged SIK2) was 18.1 nM, the IC50 (GST-tagged SIK3) was 2.3 nM and the IC50 (GST-tagged SIK1) was 18 nM.
In the case of `COc1cc(-c2c3c(C#N)cc(-c4cnn(CC5(O)CCC5)c4)cc3nn2C)cc(OC(F)F)c1C(=O)N[C@@H]1CC1(F)F` [Example 110, 4-[4-cyano-6-[1-[(1-hydroxycyclobutyl)methyl]pyrazol-4-yl]-2-methylindazol-3-yl]-N-[(1R)-2,2-difluorocyclopropyl]-2-(difluoromethoxy)-6-methoxybenzamide], the IC50 (GST-tagged SIK2) is reported as 3.2 nM, the IC50 (GST-tagged SIK3) is reported as 1.7 nM and the IC50 (GST-tagged SIK1) is reported as 6.5 nM.
In the case of `COc1cc(-c2c3c(C#N)cc(-c4cnn(CCC(C)(C)O)c4)cc3nn2C)cc(OC(F)F)c1C(=O)N[C@@H]1CC1(F)F` [Example 111, 4-[4-cyano-6-[1-(3-hydroxy-3-methylbutyl)pyrazo]-4-yl]-2-methylindazol-3-yl]-N-[(1R)-2,2-difluoro[cyclopropyl]-2-(difluoromethoxy)-6-methoxybenzamide], the IC50 (GST-tagged SIK2) is reported as 1.7 nM, the IC50 (GST-tagged SIK3) is reported as 1.7 nM and the IC50 (GST-tagged SIK1) is reported as 6.2 nM.
Work on `CCn1cc(-c2cc(C(F)F)c3c(-c4cc(OC)c(C(N)=O)c(OC(F)F)c4)n(C)nc3c2)cn1` [Example 112, 2-(difluoromethoxy)-4-[4-(difluoromethyl)-6-(1-ethylpyrazol-4-yl)-2-methylindazol-3-yl]-6-methoxybenzamide] yielded an IC50 (GST-tagged SIK2) of 13.7 nM, an IC50 (GST-tagged SIK3) of 3 nM and an IC50 (GST-tagged SIK1) of 16.6 nM.
`CCCn1cc(-c2cc(C(F)F)c3c(-c4cc(OC)c(C(N)=O)c(OC(F)F)c4)n(C)nc3c2)cn1` [Example 113, 2-(difluoromethoxy)-4-[4-(difluoromethyl)-2-methyl-6-(1-propylpyrazol-4-yl)indazol-3-yl]-6-methoxybenzamide] was tested, and the IC50 (GST-tagged SIK2) was 15.6 nM, the IC50 (GST-tagged SIK3) was 2.7 nM and the IC50 (GST-tagged SIK1) was 19.7 nM.
In the case of `COc1cc(-c2c3c(C#N)cc(-c4cnn(CC(C)(C)O)c4)cc3nn2C)cc(OC(F)F)c1C(=O)N[C@@H]1CC1(F)F` [Example 114], the IC50 (GST-tagged SIK2) is reported as 4.1 nM, the IC50 (GST-tagged SIK3) is reported as 0.7 nM and the IC50 (GST-tagged SIK1) is reported as 12.6 nM.
For `COc1cc(-c2c3c(C#N)cc(-c4cnn(CC(F)F)c4)cc3nn2C)cc(OC(F)F)c1C(=O)N[C@@H]1CC1(F)F` [Example 115, 4-[4-cyano-6-[1-(2,2-difluoroethyl)pyrazol-4-yl]-2-methylindazol-3-yl]-N-[(1R)-2,2-difluorocyclopropyl]-2-(difluoromethoxy)-6-methoxybenzamide], the IC50 (GST-tagged SIK2) was 2.4 nM, the IC50 (GST-tagged SIK3) was < 0.6 nM and the IC50 (GST-tagged SIK1) was 9.4 nM.
Compound `CCn1cc(-c2cc(C(F)F)c3c(-c4cc(OC)c(C(=O)N[C@@H]5CC5(F)F)c(OC(F)F)c4)n(C)nc3c2)cn1` [Example 116, N-[(1R)-2,2-difluorocyclopropyl]-2-(difluoromethoxy)-4-[4-(difluoromethyl)-6-(1-ethylpyrazol-4-yl)-2-methylindazol-3-yl]-6-methoxybenzamide] has an IC50 (GST-tagged SIK2) of 5.8 nM, an IC50 (GST-tagged SIK3) of 1.1 nM and an IC50 (GST-tagged SIK1) of 16.1 nM.
`COc1cc(-c2c3c(C(F)F)cc(-c4cnn(CC5(O)CCC5)c4)cc3nn2C)cc(OC(F)F)c1C(=O)N[C@@H]1CC1(F)F` [Example 117, N-[(1R)-2,2-difluorocyclopropyl]-2-(difluoromethoxy)-4-[4-(difluoromethyl)-6-[1-[(1-hydroxycyclobutyl)methyl]pyrazol-4-yl]-2-methylindazol-3-yl]-6-methoxybenzamide] gave an IC50 (GST-tagged SIK2) of 9.3 nM, an IC50 (GST-tagged SIK3) of 1 nM and an IC50 (GST-tagged SIK1) of 12.5 nM.
With `CCn1cc(-c2cc(C#N)c3c(-c4cc(OC)c(C(=O)N[C@@H]5CC5(F)F)c(OC(F)F)c4)n(C)nc3c2)cn1` [Example 118, 4-[4-cyano-6-(1-ethylpyrazol-4-yl)-2-methylindazol-3-yl]-N-[(1R)-2,2-difluorocyclopropyl]-2-(difluoromethoxy)-6-methoxybenzamide] the IC50 (GST-tagged SIK2) was 1 nM, the IC50 (GST-tagged SIK3) was 0.6 nM and the IC50 (GST-tagged SIK1) was 5.3 nM.
`COc1cc(-c2c3c(C(F)F)cc(-c4cnn(CCC(C)(C)O)c4)cc3nn2C)cc(OC(F)F)c1C(=O)N[C@@H]1CC1(F)F` [Example 119] showed an IC50 (GST-tagged SIK2) of 2.6 nM, an IC50 (GST-tagged SIK3) of 0.7 nM and an IC50 (GST-tagged SIK1) of 3.9 nM.
